Reference: patent US20260015350A1, “AZAQUINAZOLINE PAN-KRAS INHIBITORS” (Mirati Therapeutics, Inc., priority 2022, published 2026)

Key:
[1] = target: T1, KRas^WT (Homo sapiens, UniProt P01116); test: KRas binding assay (TR-FRET tracer displacement), KRas WT; details: single point, 10 nM compound, TR-FRET
T1 construct: Biotinylated KRas (corresponding to amino acids 1-169, produced at Accelegan Inc.); biotin (biotinylated); purchased Accelegan Inc

[2] = target: T2, KRas^G12A (Homo sapiens, UniProt P01116, G12A); test: KRas binding assay (TR-FRET tracer displacement), KRas G12A; details: single point, 10 nM compound, TR-FRET
T2 construct: Biotinylated KRas (corresponding to amino acids 1-169, produced at Accelegan Inc.); biotin (biotinylated); purchased Accelegan Inc

[3] = target: T3, KRas^G12C (Homo sapiens, UniProt P01116, G12C); test: KRas binding assay (TR-FRET tracer displacement), KRas G12C; details: single point, 10 nM compound, TR-FRET
T3 construct: Biotinylated KRas (corresponding to amino acids 1-169, produced at Accelegan Inc.); biotin (biotinylated); purchased Accelegan Inc

[4] = target: T4, KRas^G12D (Homo sapiens, UniProt P01116, G12D); test: KRas binding assay (TR-FRET tracer displacement), KRas G12D
T4 construct: Biotinylated KRas (corresponding to amino acids 1-169, produced at Accelegan Inc.); biotin (biotinylated); purchased Accelegan Inc

[5] = target: T5, KRas^G12R (Homo sapiens, UniProt P01116, G12R); test: KRas binding assay (TR-FRET tracer displacement), KRas G12R
T5 construct: Biotinylated KRas (corresponding to amino acids 1-169, produced at Accelegan Inc.); biotin (biotinylated); purchased Accelegan Inc

[6] = target: T6, KRas^G12S (Homo sapiens, UniProt P01116, G12S); test: KRas binding assay (TR-FRET tracer displacement), KRas G12S; details: single point, 10 nM compound, TR-FRET
T6 construct: Biotinylated KRas (corresponding to amino acids 1-169, produced at Accelegan Inc.); biotin (biotinylated); purchased Accelegan Inc

[7] = target: T7, KRas^G12V (Homo sapiens, UniProt P01116, G12V); test: KRas binding assay (TR-FRET tracer displacement), KRas G12V
T7 construct: Biotinylated KRas (corresponding to amino acids 1-169, produced at Accelegan Inc.); biotin (biotinylated); purchased Accelegan Inc

[8] = target: T8, KRas^G13D (Homo sapiens, UniProt P01116, G13D); test: KRas binding assay (TR-FRET tracer displacement), KRas G13D; details: single point, 10 nM compound, TR-FRET
T8 construct: Biotinylated KRas (corresponding to amino acids 1-169, produced at Accelegan Inc.); biotin (biotinylated); purchased Accelegan Inc

[9] = target: T9, KRas^Q61H (Homo sapiens, UniProt P01116, Q61H); test: KRas binding assay (TR-FRET tracer displacement), KRas Q61H; details: single point, 10 nM compound, TR-FRET
T9 construct: Biotinylated KRas (corresponding to amino acids 1-169, produced at Accelegan Inc.); biotin (biotinylated); purchased Accelegan Inc

[10] = system: KRas-mediated phosphorylation of ERK in MKN1 cells; test: Inhibition of KRas-mediated phosphorylation of ERK (Cisbio HTRF pERK), MKN1 cells; format: cell-based; details: Homo sapiens, MKN-1
Outline: (§1)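 Day 1 seeding: 6,000 cells per well, RPMI/10% FBS, left overnight at 37° C. with 5% CO2. Plates then stood covered for 4 h at room temperature prior to HTRF detection of pERK.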

[11] = system: KRas-mediated phosphorylation of ERK in PSN1 cells; test: Inhibition of KRas-mediated phosphorylation of ERK (Cisbio HTRF pERK), PSN1 cells; format: cell-based; details: Homo sapiens
Outline: as §1

[12] = system: KRas-mediated phosphorylation of ERK in AsPC-1 cells; test: Inhibition of KRas-mediated phosphorylation of ERK (Cisbio HTRF pERK), AsPC-1 cells; format: cell-based; details: Homo sapiens, ASPC1, AsPC-1 cells; HTRF pERK
Outline: (§2)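 Cells were seeded at 6,000 per well and treated for 3 hrs with compound in a 10-dose, 3-fold series from 10 uM (0.8% final DMSO), with 0.2 uM Trametinib as Min control. Lysates made at 4° C over 40 mins were incubated 2 hrs at room temperature with d2- and Cryptate-labelled antibodies, then read by HTRF.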

[13] = system: KRas-mediated phosphorylation of ERK in H727 cells; test: Inhibition of KRas-mediated phosphorylation of ERK (Cisbio HTRF pERK), H727 cells; format: cell-based; details: Homo sapiens, NCI-H727, H727 cells; HTRF pERK
Outline: as §2

[14] = system: KRas-mediated phosphorylation of ERK in A549 cells; test: Inhibition of KRas-mediated phosphorylation of ERK (Cisbio HTRF pERK), A549 cells; format: cell-based; details: Homo sapiens, HTRF pERK
Outline: (§3)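 Using 6,000 cells per well, compounds are applied for 3 hrs and cells then lysed at 4° C with shaking for 40 mins. Phospho-ERK is measured by HTRF after 2 hrs of lysate incubation with the d2/Cryptate antibody mixture.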

[15] = system: KRas-mediated phosphorylation of ERK in H460 cells; test: Inhibition of KRas-mediated phosphorylation of ERK (Cisbio HTRF pERK), H460 cells; format: cell-based; details: Homo sapiens; for IC50: NCI-H460, HTRF pERK
Outline: as §2

[16] = system: KRas-mediated phosphorylation of ERK in HCT116 cells; test: Inhibition of KRas-mediated phosphorylation of ERK (Cisbio HTRF pERK), HCT116 cells; format: cell-based; details: Homo sapiens; for IC50: HCT-116, HTRF pERK
Outline: as §3

T5 sequence (P01116 1-169 isoform P01116-2 G12R): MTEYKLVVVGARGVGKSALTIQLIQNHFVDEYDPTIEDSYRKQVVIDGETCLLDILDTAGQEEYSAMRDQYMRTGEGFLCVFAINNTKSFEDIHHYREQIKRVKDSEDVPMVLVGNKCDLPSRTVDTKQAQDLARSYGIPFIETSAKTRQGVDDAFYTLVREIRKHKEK
T2 sequence (P01116 1-169 isoform P01116-2 G12A): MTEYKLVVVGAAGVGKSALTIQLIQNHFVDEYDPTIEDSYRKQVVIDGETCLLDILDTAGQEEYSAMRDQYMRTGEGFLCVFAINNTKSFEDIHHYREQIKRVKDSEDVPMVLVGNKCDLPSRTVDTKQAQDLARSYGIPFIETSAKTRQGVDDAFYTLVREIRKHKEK
T9 sequence (P01116 1-169 isoform P01116-2 Q61H): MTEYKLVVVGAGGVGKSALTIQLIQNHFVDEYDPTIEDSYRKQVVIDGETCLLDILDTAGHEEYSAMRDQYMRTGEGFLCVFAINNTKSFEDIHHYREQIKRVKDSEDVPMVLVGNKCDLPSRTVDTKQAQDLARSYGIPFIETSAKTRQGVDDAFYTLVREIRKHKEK
T6 sequence (P01116 1-169 isoform P01116-2 G12S): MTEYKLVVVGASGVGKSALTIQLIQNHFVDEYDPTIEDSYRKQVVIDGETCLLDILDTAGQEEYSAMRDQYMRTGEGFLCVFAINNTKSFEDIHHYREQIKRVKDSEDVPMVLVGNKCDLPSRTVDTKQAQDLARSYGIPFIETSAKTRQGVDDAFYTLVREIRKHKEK
T4 sequence (P01116 1-169 isoform P01116-2 G12D): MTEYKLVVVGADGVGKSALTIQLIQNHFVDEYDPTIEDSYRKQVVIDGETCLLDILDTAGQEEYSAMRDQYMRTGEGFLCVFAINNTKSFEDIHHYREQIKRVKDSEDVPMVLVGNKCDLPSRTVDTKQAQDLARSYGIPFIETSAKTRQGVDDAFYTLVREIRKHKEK
T8 sequence (P01116 1-169 isoform P01116-2 G13D): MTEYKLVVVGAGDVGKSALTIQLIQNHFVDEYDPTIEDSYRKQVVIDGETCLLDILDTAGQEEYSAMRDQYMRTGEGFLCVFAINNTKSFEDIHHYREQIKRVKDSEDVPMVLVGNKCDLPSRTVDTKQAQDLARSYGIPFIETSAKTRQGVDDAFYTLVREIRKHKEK
T3 sequence (P01116 1-169 isoform P01116-2 G12C): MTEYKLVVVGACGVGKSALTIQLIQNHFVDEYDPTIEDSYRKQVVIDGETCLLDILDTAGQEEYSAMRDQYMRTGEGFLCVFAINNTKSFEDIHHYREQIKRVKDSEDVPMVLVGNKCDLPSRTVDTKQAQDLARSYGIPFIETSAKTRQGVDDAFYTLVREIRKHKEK
T7 sequence (P01116 1-169 isoform P01116-2 G12V): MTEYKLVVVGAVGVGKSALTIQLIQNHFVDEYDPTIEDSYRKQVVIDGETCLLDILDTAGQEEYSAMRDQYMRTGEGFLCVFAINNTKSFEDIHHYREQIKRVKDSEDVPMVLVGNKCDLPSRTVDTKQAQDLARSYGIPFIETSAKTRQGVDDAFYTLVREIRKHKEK
T1 sequence (P01116 1-169 isoform P01116-2): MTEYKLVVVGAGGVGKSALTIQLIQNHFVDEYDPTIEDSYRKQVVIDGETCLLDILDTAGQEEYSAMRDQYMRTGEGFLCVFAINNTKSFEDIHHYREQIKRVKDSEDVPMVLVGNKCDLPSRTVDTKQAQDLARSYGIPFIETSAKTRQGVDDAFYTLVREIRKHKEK

Row | inhibition at 0.01 µM [1] [%] | inhibition at 0.01 µM [2] [%] | inhibition at 0.01 µM [3] [%] | IC50 [4] [nM] | IC50 [5] [nM] | inhibition at 0.01 µM [6] [%] | IC50 [7] [nM] | inhibition at 0.01 µM [8] [%] | inhibition at 0.01 µM [9] [%] | IC50 [10] [nM] | IC50 [11] [nM] | IC50 [12] [nM] | IC50 [13] [nM] | IC50 [14] [nM] | IC50 [15] [nM] | IC50 [16] [nM] | Compound | inhibition at 0.1 µM ([15]; NCI-H460, 3 h, single point, 100 nM compound, 3 hrs) [%] | inhibition at 0.1 µM ([16]; HCT-116, 3 h, single point, 100 nM compound, 3 hrs) [%]
1 | 91 | 91 | 93 | 6 | 4 | 93 | 3 | 93 | 90 | 25 | 3770 | 94 | 85 | 65 | – | – | CCc1c(F)ccc2cc(O)cc(-c3ncc4c(N5CCC(O)C(F)(F)CC5)nc(OC[C@@]56CCCN5C[C@H](F)C6)nc4c3F)c12 (stereo partly drawn) [Example 586, 1-(7-(8-ethyl-7-fluoro-3-hydroxynaphthalen-1-yl)-8-fluoro-2-(((2R,7aS)-2-fluorotetrahydro-1H-pyrrolizin-7a(5H)-yl)methoxy)pyrido[4,3-d]pyrimidin-4-yl)-5,5-difluoroazepan-4-ol] | 56 | 42
2 | 82 | 77 | 91 | 2 | < 2 | 86 | < 2 | 84 | 88 | 17 | 4150 | 87 | 68 | 141 | 72 | 188 | CCc1c(F)ccc2cc(O)cc(-c3ncc4c(N5CCCC6(CC(O)C6)C5)nc(OCC5(CN(C)C)CC5)nc4c3F)c12 (centres unmarked) [Example 698, 6-(2-((1-((dimethylamino)methyl)cyclopropyl)methoxy)-7-(8-ethyl-7-fluoro-3-hydroxynaphthalen-1-yl)-8-fluoropyrido[4,3-d]pyrimidin-4-yl)-6-azaspiro[3.5]nonan-2-ol] | – | –
3 | 84 | 82 | 89 | 3 | 2 | 85 | < 2 | 89 | 88 | 9 | 2780 | 45 | 83 | 112 | 39 | 85 | CCc1c(F)ccc2cc(O)cc(-c3ncc4c(N5CCC[C@@](C)(O)C5)nc(OC[C@@]56CCCN5[C@H](COC(=O)NC)CC6)nc4c3F)c12 [Example 706, ((3S,7aS)-7a-(((7-(8-ethyl-7-fluoro-3-hydroxynaphthalen-1-yl)-8-fluoro-4-((R)-3-hydroxy-3-methylpiperidin-1-yl)pyrido[4,3-d]pyrimidin-2-yl)oxy)methyl)hexahydro-1H-pyrrolizin-3-yl)methyl methylcarbamate] | – | –
4 | 92 | 90 | 93 | < 2 | < 2 | 92 | < 2 | 94 | 92 | 3 | 1820 | 22 | 44 | 47 | 30 | 84 | CCNC(=O)OC[C@@H]1CC[C@]2(COc3nc(N4CCC[C@@](C)(O)C4)c4cnc(-c5cc(O)cc6ccc(F)c(CC)c56)c(F)c4n3)CCCN12 [Example 717, ((3S,7aS)-7a-(((7-(8-ethyl-7-fluoro-3-hydroxynaphthalen-1-yl)-8-fluoro-4-((R)-3-hydroxy-3-methylpiperidin-1-yl)pyrido[4,3-d]pyrimidin-2-yl)oxy)methyl)hexahydro-1H-pyrrolizin-3-yl)methyl ethylcarbamate] | – | –
5 | 94 | 94 | 96 | < 2 | < 2 | 94 | < 2 | 95 | 96 | 2 | 1100 | 17 | 43 | 37 | 29 | 58 | CCc1c(F)ccc2cc(O)cc(-c3ncc4c(N5CCC[C@@](C)(O)C5)nc(OC[C@@]56CCCN5[C@H](COC(=O)NC(C)C)CC6)nc4c3F)c12 [Example 718, ((3S,7aS)-7a-(((7-(8-ethyl-7-fluoro-3-hydroxynaphthalen-1-yl)-8-fluoro-4-((R)-3-hydroxy-3-methylpiperidin-1-yl)pyrido[4,3-d]pyrimidin-2-yl)oxy)methyl)hexahydro-1H-pyrrolizin-3-yl)methyl isopropylcarbamate] | – | –
6 | 96 | 95 | 97 | < 2 | < 2 | 97 | < 2 | 98 | 98 | 1 | 518 | 7 | 23 | 7 | 8 | 23 | CCc1c(F)ccc2cc(O)cc(-c3ncc4c(N5CCC[C@@](C)(O)C5)nc(OC[C@@]56CCCN5[C@H](COC(=O)N5CCCC5)CC6)nc4c3F)c12 [Example 719, ((3S,7aS)-7a-(((7-(8-ethyl-7-fluoro-3-hydroxynaphthalen-1-yl)-8-fluoro-4-((R)-3-hydroxy-3-methylpiperidin-1-yl)pyrido[4,3-d]pyrimidin-2-yl)oxy)methyl)hexahydro-1H-pyrrolizin-3-yl)methyl pyrrolidine-1-carboxylate] | – | –
7 | 89 | 90 | 92 | < 2 | < 2 | 90 | < 2 | 93 | 92 | 2 | 956 | 15 | 28 | 19 | 12 | 48 | CCc1c(F)ccc2cc(O)cc(-c3ncc4c(N5CCC[C@@](C)(O)C5)nc(OC[C@@]56CCCN5[C@H](COC(=O)N5CCCCC5)CC6)nc4c3F)c12 [Example 721, ((3S,7aS)-7a-(((7-(8-ethyl-7-fluoro-3-hydroxynaphthalen-1-yl)-8-fluoro-4-((R)-3-hydroxy-3-methylpiperidin-1-yl)pyrido[4,3-d]pyrimidin-2-yl)oxy)methyl)hexahydro-1H-pyrrolizin-3-yl)methyl piperidine-1-carboxylate] | – | –
8 | 48 | 54 | 58 | 17 | 3 | 66 | 5 | 55 | 48 | 32 | > 10000 | 193 | 87 | 76 | 64 | 216 | CCc1cccc2cc3[nH]ncc3c(-c3ncc4c(N5C[C@@H]6C[C@H](C5)[C@H](O)C6)nc(OC[C@@]56CCCN5C[C@H](F)C6)nc4c3F)c12 [Example 767, (1R,5R,6R)-3-(7-(5-ethyl-1H-benzo[f]indazol-4-yl)-8-fluoro-2-(((2R,7aS)-2-fluorohexahydro-1H-pyrrolizin-7a-yl)methoxy)pyrido[4,3-d]pyrimidin-4-yl)-3-azabicyclo[3.2.1]octan-6-ol] | – | –
